{
  "source": "patent US20040192665A1",
  "about": "(priority 2002, published 2004)",
  "key": {"[1]": {"settings": "experiment 2, I.P. 8 mg/kg once per week"}, "[2]": {"test_system": "DU-145 human prostate tumor cells", "experiment": "DU-145 xenograft tumor growth in nude mice", "type": "in vivo, nude mice (nu/nu)", "settings": "experiment 2; I.P. 8 mg/kg once per week; after 5 treatments", "protocol": "Cage were cleaned and bedding changed once weekly. Irradiated corn cob bedding was used. Animals were observed daily and clinical signs were noted.\nMorbidity and mortality were monitored daily.\nThe dosage level was determined by exact body weight.\nFive mice per treatment group were tested.\nAnimals were treated once per week for 5 weeks."}},
  "data": [
    {"molecule": "COc1cccc2c1C(=O)c1c(O)c3c(c(O)c1C2=O)C[C@@](O)(C(=O)CO)C[C@@H]3O[C@H]1C[C@H](N)[C@H](O)[C@H](C)O1", "note": "[doxorubicin]", "values": [
      {"measurement": "animals survived", "setting": "[1]; after 5 treatments", "value": "3/6"},
      {"measurement": "average group weight in the surviving animals, down by", "setting": "[1]; after the 5th treatment", "value": 27, "unit": "%"},
      {"measurement": "tumor volumes less compared to placebo-control tumors", "setting": "[2]", "value": 4.4, "unit": "fold"}
    ]}
  ]
}
